The results in this text go back to PubChem BioAssay AID270 (DTP/NCI, 2004).

Structures are written as SMILES. Values joined by “and” are separate entries in the source; they are usually repeats but may differ in a detail not shown here. Equal entries are not always repeated. Records with an inconclusive call do not appear.

For this test, the system named is BDF1 mice, s.c. Lewis lung carcinoma, T/C %. In words: NCI In Vivo Anticancer Drug Screen. Data for tumor model Lewis Lung Carcinoma (subcutaneous) in B6D2F1 (BDF1) mice. The procedure, abridged:
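Transplanted tumors grown in mice; compound vs vehicle dosing; endpoint survival or tumor size; ratio T/C.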

Setting [1] is: endpoint: mean tumor weight, dose: 12.0 mg/kg/injection, schedule: Q01DX011 (ip), vehicle: saline, higher = larger tumour.

For the compound `NC(=S)N/N=C\c1nccc2c(N)cccc12`, the T/C is 107 % of control and 110 % of control (endpoint: median survival time, dose: 6.25 mg/kg/injection, schedule: Q01DX009 (ip), vehicle: saline with Tween-80, higher = longer survival); 94 % of control and 113 % of control (endpoint: median survival time, dose: 12.5 mg/kg/injection, schedule: Q01DX009 (ip), vehicle: saline with Tween-80, higher = longer survival); 112 % of control and 117 % of control (endpoint: median survival time, dose: 25.0 mg/kg/injection, schedule: Q01DX009 (ip), vehicle: saline with Tween-80, higher = longer survival); 105 % of control (endpoint: median survival time, dose: 50.0 mg/kg/injection, schedule: Q01DX009 (ip), vehicle: saline with Tween-80, higher = longer survival); 110 % of control and 124 % of control (endpoint: median survival time, dose: 75.0 mg/kg/injection, schedule: Q01DX009 (ip), vehicle: saline with Tween-80, higher = longer survival).
Turning to `O=C(NO)c1ccccc1O`, the T/C (endpoint: median survival time, dose: 6.25 mg/kg/injection, schedule: Q01DX009 (ip), vehicle: saline, higher = longer survival) was 109 % of control; the T/C (endpoint: median survival time, dose: 12.5 mg/kg/injection, schedule: Q01DX009 (ip), vehicle: saline, higher = longer survival) was 106 % of control; the T/C (endpoint: median survival time, dose: 25.0 mg/kg/injection, schedule: Q01DX009 (ip), vehicle: saline, higher = longer survival) is 108 % of control; the T/C (endpoint: median survival time, dose: 50.0 mg/kg/injection, schedule: Q01DX009 (ip), vehicle: saline, higher = longer survival) is 103 % of control; the T/C (endpoint: median survival time, dose: 400.0 mg/kg/injection, schedule: Q01DX009 (ip), vehicle: saline with Tween-80, higher = longer survival) was 113 % of control.
For the compound `COc1cc2c3c(c1)/C(=N\Nc1ccccc1)CCN3CCC2`, the T/C was 112 % of control (endpoint: median survival time, dose: 0.78 mg/kg/injection, schedule: Q01DX009 (ip), vehicle: DMSO, higher = longer survival) and 124 % of control (endpoint: median survival time, dose: 3.0 mg/kg/injection, schedule: Q01DX009 (ip), vehicle: DMSO, higher = longer survival).
In the case of `CCN1C=C/C(=C\C=C/c2cc[n+](CC)c3ccccc23)c2ccccc21`, the T/C (endpoint: median survival time, dose: 6.0 micrograms/kg/injection, schedule: Q01DX009 (ip), vehicle: saline, higher = longer survival) is 114 % of control; the T/C (endpoint: median survival time, dose: 6.2 micrograms/kg/injection, schedule: Q01DX009 (ip), vehicle: saline with Tween-80, higher = longer survival) is 104 % of control; the T/C (endpoint: median survival time, dose: 12.0 micrograms/kg/injection, schedule: Q01DX009 (ip), vehicle: saline, higher = longer survival) is 209 % of control; the T/C (endpoint: median survival time, dose: 12.5 micrograms/kg/injection, schedule: Q01DX009 (ip), vehicle: saline with Tween-80, higher = longer survival) is 98 % of control; the T/C (endpoint: median survival time, dose: 25.0 micrograms/kg/injection, schedule: Q01DX009 (ip), vehicle: saline with Tween-80, higher = longer survival) was 101 % of control; the T/C (endpoint: median survival time, dose: 25.0 micrograms/kg/injection, schedule: Q01DX009 (ip), vehicle: saline, higher = longer survival) was 208 % of control. Besides, the T/C by setting is: (endpoint: median survival time, dose: 50.0 micrograms/kg/injection, schedule: Q01DX009 (ip), vehicle: saline with Tween-80, higher = longer survival) 98 % of control; (endpoint: median survival time, dose: 50.0 micrograms/kg/injection, schedule: Q01DX009 (ip), vehicle: saline, higher = longer survival) 209 % of control; (endpoint: median survival time, dose: 100.0 micrograms/kg/injection, schedule: Q01DX009 (ip), vehicle: saline with Tween-80, higher = longer survival) 104 % of control.
For `Nc1nc(SCc2ccc([N+](=O)[O-])cc2)c2[nH]cnc2n1`, the T/C is, setting by setting: (endpoint: mean tumor weight, dose: 125.0 mg/kg/injection, schedule: Q01DX011 (ip), vehicle: other, higher = larger tumour) 98 % of control; (endpoint: mean tumor weight, dose: 250.0 mg/kg/injection, schedule: Q01DX011 (ip), vehicle: other, higher = larger tumour) 75 % of control; (endpoint: mean tumor weight, dose: 500.0 mg/kg/injection, schedule: Q01DX011 (ip), vehicle: other, higher = larger tumour) 80 % of control; (endpoint: mean tumor weight, dose: 1000.0 mg/kg/injection, schedule: Q01DX011 (ip), vehicle: other, higher = larger tumour) 36 % of control.
Regarding `CN(C)CCCN1c2ccccc2Sc2ccc(C(F)(F)F)cc21`, the T/C is, setting by setting: under setting [1], 81 % of control; (endpoint: mean tumor weight, dose: 25.0 mg/kg/injection, schedule: Q01DX011 (ip), vehicle: saline, higher = larger tumour) 44 % of control.
For the compound `Nc1nc(=S)c2[nH]c(N=Nc3ccc(S(=O)(=O)Nc4ncccn4)cc3)nc2[nH]1`, the T/C was 99 % of control (endpoint: median survival time, dose: 0.78 mg/kg/injection, schedule: Q01DX009 (ip), vehicle: Klucel (hydroxypropylcellulose) (HPC), higher = longer survival); 101 % of control (endpoint: median survival time, dose: 1.56 mg/kg/injection, schedule: Q01DX009 (ip), vehicle: Klucel (hydroxypropylcellulose) (HPC), higher = longer survival); 95 % of control (endpoint: median survival time, dose: 3.12 mg/kg/injection, schedule: Q01DX009 (ip), vehicle: Klucel (hydroxypropylcellulose) (HPC), higher = longer survival); 105 % of control (endpoint: median survival time, dose: 6.25 mg/kg/injection, schedule: Q01DX009 (ip), vehicle: Klucel (hydroxypropylcellulose) (HPC), higher = longer survival).
`COc1ccc2cc3[n+](cc2c1OC)CCc1cc2c(cc1-3)OCO2`: the T/C was 96 % of control under setting [1]; 102 % of control (endpoint: median survival time, dose: 0.12 mg/kg/injection, schedule: Q01DX009 (ip), vehicle: Klucel (hydroxypropylcellulose) (HPC), higher = longer survival); 107 % of control (endpoint: median survival time, dose: 0.25 mg/kg/injection, schedule: Q01DX009 (ip), vehicle: Klucel (hydroxypropylcellulose) (HPC), higher = longer survival); 112 % of control (endpoint: median survival time, dose: 0.5 mg/kg/injection, schedule: Q01DX009 (ip), vehicle: Klucel (hydroxypropylcellulose) (HPC), higher = longer survival); 110 % of control (endpoint: median survival time, dose: 1.0 mg/kg/injection, schedule: Q01DX009 (ip), vehicle: Klucel (hydroxypropylcellulose) (HPC), higher = longer survival); 95 % of control (endpoint: median survival time, dose: 2.0 mg/kg/injection, schedule: Q01DX009 (ip), vehicle: Klucel (hydroxypropylcellulose) (HPC), higher = longer survival). Moreover, the T/C was 100 % of control (endpoint: median survival time, dose: 4.0 mg/kg/injection, schedule: Q01DX009 (ip), vehicle: Klucel (hydroxypropylcellulose) (HPC), higher = longer survival) and 92 % of control (endpoint: median survival time, dose: 8.0 mg/kg/injection, schedule: Q01DX009 (ip), vehicle: Klucel (hydroxypropylcellulose) (HPC), higher = longer survival).
On to `NC(=S)N/N=C/c1nccc2ccccc12`, for which the T/C is, setting by setting: (endpoint: mean tumor weight, dose: 12.5 mg/kg/injection, schedule: Q01DX011 (ip), vehicle: carboxymethylcellulose (CMC), higher = larger tumour) 103 % of control; (endpoint: mean tumor weight, dose: 25.0 mg/kg/injection, schedule: Q01DX011 (ip), vehicle: carboxymethylcellulose (CMC), higher = larger tumour) 48 % of control; (endpoint: mean tumor weight, dose: 26.0 mg/kg/injection, schedule: Q01DX011 (ip), vehicle: saline, higher = larger tumour) 64 % of control; (endpoint: mean tumor weight, dose: 33.5 mg/kg/injection, schedule: Q01DX011 (ip), vehicle: carboxymethylcellulose (CMC), higher = larger tumour) 56 % of control; (endpoint: mean tumor weight, dose: 38.0 mg/kg/injection, schedule: Q01DX011 (ip), vehicle: saline, higher = larger tumour) 16 % of control; (endpoint: mean tumor weight, dose: 40.0 mg/kg/injection, schedule: Q01DX011 (oral), vehicle: saline, higher = larger tumour) 42 % of control. Moreover, the T/C (endpoint: mean tumor weight, dose: 56.0 mg/kg/injection, schedule: Q01DX011 (ip), vehicle: saline, higher = larger tumour) is 3 % of control; the T/C (endpoint: median survival time, dose: 9.4 mg/kg/injection, schedule: Q01DX009 (ip), vehicle: saline with Tween-80, higher = longer survival) was 124 % of control; the T/C (endpoint: median survival time, dose: 18.8 mg/kg/injection, schedule: Q01DX009 (ip), vehicle: saline with Tween-80, higher = longer survival) is 98 % of control and 108 % of control; the T/C (endpoint: median survival time, dose: 37.5 mg/kg/injection, schedule: Q01DX009 (ip), vehicle: saline with Tween-80, higher = longer survival) was 98 % of control.
Turning to `COC(=O)Nc1nc2ccc(C(=O)c3ccccc3)cc2[nH]1`, the T/C runs as follows: (endpoint: median survival time, dose: 2.0 mg/kg/injection, schedule: Q04DX003 (ip), vehicle: saline with Tween-80, higher = longer survival) 89 % of control; (endpoint: median survival time, dose: 4.0 mg/kg/injection, schedule: Q04DX003 (ip), vehicle: saline with Tween-80, higher = longer survival) 95 % of control; (endpoint: median survival time, dose: 8.0 mg/kg/injection, schedule: Q04DX003 (ip), vehicle: saline with Tween-80, higher = longer survival) 98 % of control; (endpoint: median survival time, dose: 32.0 mg/kg/injection, schedule: Q04DX003 (ip), vehicle: saline with Tween-80, higher = longer survival) 95 % of control; (endpoint: median survival time, dose: 64.0 mg/kg/injection, schedule: Q04DX003 (ip), vehicle: saline with Tween-80, higher = longer survival) 102 % of control.
In the case of `COc1cc(NC(=O)N(CCCl)N=O)cc(OC)c1OC`, the T/C runs as follows: (endpoint: median survival time, dose: 3.12 mg/kg/injection, schedule: Q01DX009 (ip), vehicle: other, higher = longer survival) 103 % of control; (endpoint: median survival time, dose: 6.25 mg/kg/injection, schedule: Q01DX009 (ip), vehicle: other, higher = longer survival) 102 % of control; (endpoint: median survival time, dose: 12.5 mg/kg/injection, schedule: Q01DX009 (ip), vehicle: other, higher = longer survival) 101 % of control; (endpoint: median survival time, dose: 25.0 mg/kg/injection, schedule: Q01DX009 (ip), vehicle: other, higher = longer survival) 94 % of control; (endpoint: median survival time, dose: 50.0 mg/kg/injection, schedule: Q01DX009 (ip), vehicle: other, higher = longer survival) 99 % of control.
In the case of `COc1ccccc1NC(=O)N(CCCl)N=O`, the T/C (endpoint: median survival time, dose: 0.39 mg/kg/injection, schedule: Q01DX009 (ip), vehicle: saline with Tween-80, higher = longer survival) was 95 % of control; the T/C (endpoint: median survival time, dose: 0.78 mg/kg/injection, schedule: Q01DX009 (ip), vehicle: saline with Tween-80, higher = longer survival) is 88 % of control; the T/C (endpoint: median survival time, dose: 1.56 mg/kg/injection, schedule: Q01DX009 (ip), vehicle: saline with Tween-80, higher = longer survival) is 93 % of control; the T/C (endpoint: median survival time, dose: 3.13 mg/kg/injection, schedule: Q01DX009 (ip), vehicle: saline with Tween-80, higher = longer survival) was 98 % of control.
Turning to `O=NN(CCCl)C(=O)Nc1ccc2c3c(cccc13)-c1ccccc1-2`, the T/C was 100 % of control (endpoint: median survival time, dose: 50.0 mg/kg/injection, schedule: Q01DX009 (ip), vehicle: Klucel (hydroxypropylcellulose) (HPC), higher = longer survival); 97 % of control (endpoint: median survival time, dose: 100.0 mg/kg/injection, schedule: Q01DX009 (ip), vehicle: Klucel (hydroxypropylcellulose) (HPC), higher = longer survival); 88 % of control (endpoint: median survival time, dose: 200.0 mg/kg/injection, schedule: Q01DX009 (ip), vehicle: Klucel (hydroxypropylcellulose) (HPC), higher = longer survival).
